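1) Cells in 96-well plates. 2) Compound, 48 h, 5 concentrations. 3) Linear interpolation between surrounding doses. 4) Unreached endpoint = highest concentration. TGI: concentration producing complete growth inhibition.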

Holding throughout (assay): inhibition of tumour cell growth, NCI panel, 48 h
The subject of assay [1] is HT29 colon.
Assay [2] has as its system BT-549 breast.
In assay [3] the test system is UACC-257 melanoma.
The subject of assay [4] is K-562 leukemia.
The test system of assay [5] is MCF7 breast.
For assay [6], the system named is OVCAR-8 ovarian.
Assay [7] deals with SK-MEL-28 melanoma.
In assay [8] the test system is CAKI-1 renal.
Assay [9] concerns MDA-MB-231 breast.
Assay [10] concerns SF-295 CNS.
In assay [11] the test system is DU-145 prostate.
Assay [12] has as its system COLO 205 colon.
In assay [13] the test system is MDA-N.
Assay [14] has as its system LOX IMVI melanoma.
Assay [15] has as its system OVCAR-4 ovarian.
For assay [16], the system named is HOP-92 NSCLC.
Assay [17] has as its system CCRF-CEM leukemia.
Assay [18] concerns M14 melanoma.
For assay [19], the system named is IGROV1 ovarian.
The test system of assay [20] is SF-539 CNS.

As for `CC1(C)CO[P@@](=S)(c2ccccn2)O[C@@H]1c1ccccc1`, the TGI in assay [1], in assay [2], in assay [3], in assay [4], in assay [5] and in assay [6] was over 100 µM throughout. Moreover, the TGI in [7], in [8], in assay [9], in assay [10], in assay [11] and in assay [12] was over 100 µM throughout. The TGI in [13], in assay [14], in assay [15], in [16], in assay [17] and in [18] was over 100 µM throughout. The molecule also returned a TGI in [19] of over 100 µM.
On to `COc1ccc2c(O)c(S(=O)(=O)c3ccc(C)cc3)c(=O)oc2c1OC`, for which the TGI in assay [1], in assay [2], in [3], in assay [4], in [5] and in assay [6] was over 100 µM throughout. Further, the TGI in assay [7], in assay [8], in [9], in assay [10], in assay [11] and in assay [12] was over 100 µM throughout. For the same molecule, the TGI in assay [13], in assay [20], in assay [15], in assay [16], in assay [17] and in assay [18] was over 100 µM each time. For the same molecule, in [19], the TGI is over 100 µM.
With `N#CCCN(CCC#N)c1ccc(/C=C2\N=C(c3ccccc3)N(c3ccc(C(=O)O)cc3)C2=O)cc1`, the TGI in assay [1] is over 100 µM; in assay [2], 71.2 µM; in assay [3], over 100 µM; in assay [4] it was over 100 µM; in assay [5], over 100 µM; in assay [6], 73.1 µM. In addition, the TGI in [7], in [9], in assay [10], in [11], in assay [12] and in assay [13] was over 100 µM each time. In addition, the TGI in assay [20] is 61.5 µM; in assay [14], 93.2 µM; in assay [15], 66.8 µM; in assay [16], 30.1 µM; in [18] it was over 100 µM; in [19], 53.3 µM.
In the case of `COc1ccc(/C=C2\C[C@H]3[C@@H]4CCC5=C/C(=N/O)CC[C@]5(C)[C@H]4CC[C@]3(C)\C2=N\O)cc1`, the TGI in assay [1] was 45.3 µM; in assay [2], 53.7 µM; in assay [3], over 100 µM; in [4] it was over 100 µM; in assay [5], 88.5 µM; in assay [6] it was over 100 µM. Also, the TGI is over 100 µM in assay [7]; over 100 µM in assay [8]; over 100 µM in [9]; over 100 µM in assay [10]; over 100 µM in assay [11]; 43.9 µM in assay [12]. In addition, the TGI was over 100 µM in assay [13]; over 100 µM in assay [14]; over 100 µM in assay [15]; over 100 µM in assay [16]; 57.7 µM in assay [18]; over 100 µM in assay [19].
On to `CCOC(=O)c1cn2c(n1)sc1cc(OC)ccc12`, for which the TGI was 20.2 µM in assay [1]; over 100 µM in assay [2]; over 100 µM in assay [3]; over 100 µM in [4]; over 100 µM in assay [5]; over 100 µM in assay [6]. For the same molecule, the TGI in assay [7] is over 100 µM; in assay [8] it was over 100 µM; in [9], over 100 µM; in assay [10], over 65.5 µM; in [11], 24.6 µM; in [12], over 27.5 µM. Also, the TGI in [13] is over 22.6 µM; in assay [20], over 100 µM; in assay [14], over 100 µM; in [15], over 100 µM; in assay [16] it was over 100 µM; in [18], over 100 µM. Besides, the TGI in [19] was over 100 µM.
`O=c1[nH]c(SCc2cccc([N+](=O)[O-])c2)nc2nc[nH]c12`: the TGI in [1], in [2], in assay [3], in assay [4], in assay [5] and in assay [6] was over 100 µM throughout. Besides, the TGI in assay [7], in [8], in assay [9], in [10], in assay [11] and in assay [12] was over 100 µM throughout. The TGI in assay [13], in assay [14], in assay [15], in assay [16], in assay [17] and in [18] was over 100 µM each time. In [19], the TGI is over 100 µM.
As to `COc1cc(C2c3cc4c(cc3OC(NNS(=O)(=O)c3ccc(C)cc3)C2C)OCO4)cc(OC)c1OC` (stereo not drawn), the TGI in assay [1] was 5.38 µM; in assay [2], 45.6 µM; in [3], over 53.2 µM; in [5] it was over 39.8 µM; in assay [6], 46.8 µM; in assay [7], over 91.2 µM. Further, the TGI in assay [8] was 23.9 µM; in assay [9], over 64.1 µM; in assay [10], 6.86 µM; in [11], over 100 µM; in [12], 16.8 µM; in assay [13], 2.01 µM. Also, the TGI in [20] was 3.96 µM; in assay [14] it was over 100 µM; in assay [15] it was 48.4 µM; in [16] it was 50.1 µM; in assay [18], 14.5 µM; in assay [19], over 67.3 µM.
`CCC(=O)N/S(=N/S(=O)(=O)c1ccccc1)C(Cl)(Cl)Cl` (stereo not drawn): the TGI in assay [1], in assay [2], in assay [3], in assay [4], in assay [5] and in assay [6] was over 100 µM in each case. Moreover, the TGI in assay [7], in assay [9], in assay [10], in assay [11], in [12] and in assay [13] was over 100 µM each time. In addition, the TGI in [20], in assay [14], in assay [15], in assay [16], in [17] and in [18] was over 100 µM each time. This molecule returned a TGI in assay [19] of over 100 µM.
Take `Nc1nccc(NCC2(CO)CC(OCc3ccccc3)C2)n1` (stereo not drawn): the TGI in assay [1], in assay [2], in assay [3], in [4], in assay [5] and in assay [6] was over 100 µM throughout. For the same molecule, the TGI in assay [7], in [8], in assay [9], in assay [10], in [11] and in [12] was over 100 µM each time. In addition, the TGI in assay [13], in assay [20], in assay [14], in [15], in assay [16] and in assay [17] was over 100 µM each time. The molecule also registered a TGI in [19] of over 100 µM.
In the case of `CC(=O)O[C@H]1CC[C@@]2(C)C(=CC[C@@H]3[C@@H]2CC[C@]2(C)c4c(n[nH]c4C)C[C@@H]32)C1`, the TGI is 23.5 µM in [1]; 32.1 µM in assay [2]; 33.2 µM in assay [3]; over 100 µM in assay [4]; 24.2 µM in assay [5]; 92.9 µM in [6]. In addition, the TGI in assay [7] was determined as 45.2 µM; in [8], 32.5 µM; in assay [9], 38.4 µM; in [10], 37.2 µM; in [11], 27.2 µM; in assay [12] it was 35.4 µM. Moreover, the TGI in assay [13] was 46.6 µM; in [14], over 100 µM; in assay [15] it was 33.3 µM; in [16], 39.8 µM; in assay [17], 25.1 µM; in assay [18], 37.3 µM. For the same molecule, the TGI in assay [19] is 38.8 µM.
For `FC(F)(F)c1ccc2c(c1)nc1n2C(c2c(Cl)cccc2Cl)SC1` (stereo not drawn), the TGI was determined as 31.9 µM in assay [1]; 55.3 µM in assay [2]; 42.9 µM in [3]; 55.2 µM in assay [5]; 74.7 µM in [6]; 43.3 µM in assay [7]. The TGI in assay [8] stood at 35 µM; in assay [9] it was 35.7 µM; in [10], 33.6 µM; in assay [11], 56.1 µM; in assay [13], 36.8 µM; in [20], 43 µM. The TGI in [14] is over 100 µM; in [15], 43.4 µM; in [16] it was 37 µM; in [18] it was 36.9 µM; in assay [19], 47.7 µM.
As to `O=c1[nH]nc(-c2ccccc2)n1/N=C/c1ccccc1O`, the TGI in assay [1], in [2], in assay [3], in assay [4], in assay [5] and in assay [6] was over 100 µM throughout. The TGI in assay [8], in [9], in [10], in [11], in [12] and in assay [13] was over 100 µM throughout. Moreover, the TGI in assay [20], in assay [14], in [15], in assay [16] and in [19] was over 100 µM in each case.
Take `CCc1ccc2[nH]c(O)c(C3=Nc4ccccc4C3=O)c2c1`: the TGI in assay [1] was over 100 µM; in [2], 72.8 µM; in assay [3], over 100 µM; in assay [4] it was over 100 µM; in assay [5], 10.9 µM; in [6], 57 µM. The TGI in [7] is over 100 µM; in assay [8] it was over 100 µM; in [9], over 100 µM; in assay [10] it was 61.2 µM; in [11], over 100 µM; in assay [12], over 100 µM. Moreover, the TGI is over 100 µM in [13]; over 100 µM in [14]; 61.3 µM in assay [15]; over 100 µM in [16]; over 100 µM in assay [17]; over 100 µM in [18]. In [19], this molecule gave a TGI of 20.1 µM.
On to `CC(=O)NC1(NC(C)=O)C2CC(C1Cc1ccccc1)C(C)(C)C2C` (stereo not drawn), for which the TGI in assay [1], in assay [2], in assay [3], in assay [4], in assay [5] and in assay [6] was over 100 µM throughout. The TGI in assay [7], in assay [8], in [9], in assay [10], in assay [11] and in [12] was over 100 µM throughout. For the same molecule, the TGI in assay [13], in assay [20], in assay [15], in [16], in assay [17] and in assay [18] was over 100 µM throughout. The molecule also returned a TGI in assay [19] of over 100 µM.
As to `CC1(C)CC(=O)c2c(nc3c(ccc4ccccc43)c2-c2ccc(NC(=O)CCC(=O)Nc3ccc(-c4c5c(nc6c4ccc4ccccc46)CC(C)(C)CC5=O)cc3)cc2)C1`, the TGI in assay [1], in assay [2], in assay [3], in [4], in [5] and in [6] was over 100 µM in each case. Also, the TGI in [7], in assay [8], in assay [9], in assay [10], in [11] and in assay [12] was over 100 µM in each case. The TGI in assay [13], in assay [20], in assay [14], in assay [16], in [17] and in assay [18] was over 100 µM in each case. Moreover, in [19], the TGI was over 100 µM.

Values taken from PubChem BioAssay (NCI).
